In patent EP0097439A2, “A crystalline prostaglandin salt” (THE UPJOHN COMPANY, priority 1982, dated 1984):
Structures can show the parent of a compound that is named as a salt. Where two headings read alike, the source gives them in different places.

Assays:
[1] = Plasma levels of 9-deoxo-16,16-dimethyl-9-methylene-PGE2 by radioimmunoassay after insertion of a suppository; assay type: in vivo, Rhesus monkeys (Macaca mulatta); conditions: rhesus monkey, plasma, 30 mg, plasma, read-out: Drug Levels
From the text: A. Midtrimester pregnant female Rhesus monkeys (Macaca mulatta) are used. (The first day of menstrual bleeding is designated Day 1 of the menstrual cycle; the first day a female is placed with a male for breeding is designated Day 1 of pregnancy. Pregnancy is confirmed by abdominal palpation of the uterus.)
Blood samples are collected into heparinized syringes at specified times following insertion of a suppository in pregnant or non- pregnant monkeys. Plasma is extracted and assayed for 9-deoxo-16,16-dimethyl-9-methylene-PGE2 content by radioimmunoassay.
C. Six suppository lots are prepared (4), each containing 9- deoxo-16,16-dimethyl-9-methylene-PGE2 or its crystalline potassium salt (Examples 1 and 2). Two lots are made with Witepsol H15 alone as the suppository base, two with Witepsol HIS wax plus 2% colloidal silicon dioxide (CSD) and two with Witepsol H15 plus 2% CSD plus 10% triacetin. Suppositories are prepared using Witepsol H15 suppository wax. Free acid or potassium salt is dispersed in the hot wax using a homogenizer. Two percent colloidal silicon dioxide (CSD) is mixed in by further homogenization. In the third formulation, triacetin (10%) is added before the CSD and then homogenized for one minute. Suppositories are formed in 800 mg aluminum molds and are stored at 4°C until used.
D. The plasma levels of 9-deoxo-16,16-d1methy1-9-methy1ene-PGE2 in monkeys treated with 6 formulations containing either 9-deoxo-16,16-dimethyl-9-methylene-PGE2 free acid or potassium salt are shown in Tables 1-6. In general, higher blood levels are measured in pregnant Rhesus monkeys than in non-pregnant monkeys.

[2] = Water content / hygroscopicity of the crystalline solid; assay type: physicochemical
Experimental: All solvents used in this example are degassed with nitrogen using a gas dispersion tube for 15 min prior to use. To a stirred solution of 4.82 g of 9-deoxo-16,16-dimethyl-9-methylene-PGE2 in 50 ml of methanol is added a solution of 880 mg of potassium carbonate in 15 ml of water. The reaction mixture is then allowed to stand for 5 min at 25°C and then concentrated under reduced pressure at 35°C. Eight 250 ml portions of anhydrous tetrahydrofuran are added and evaporated to insure complete removal of water. The residue, a pale yellow foam, is dissolved in 15 ml of methanol and added dropwise under a nitrogen atmosphere with vigorous stirring to one liter of diethyl ether. The initial cloudy suspension yields a gum-like residue on the walls of the reaction vessel after about 1 hr. Continued vigorous stirring for 24 hr leads to gradual crystallization and resuspension as a uniform, easily filterable solid. This suspension is then filtered using a medium porosity sintered glass funnel. The solids are washed with 15 ml of fresh diethyl ether at 25°C. After drying for 2 hr in a vacuum desiccator at 25°C, a colorless free-flowing crystalline solid, 5.13 g, is obtained, pure crystalline 9-deoxo-16,16-dimethyl-9-methylene-PGE2 potassium salt. IR absorptions (cm^-1) are observed at 3134, 1652, 1572, 1467, 1392, 1337, 1364, 1344, 1102, 1024, 974, and 883. […]

[3] = Monkey #4, 30 mg Potassium Salt in H15 Suppositories
[4] = Monkey #5, 30 mg Potassium Salt in H15 Suppositories
[5] = Monkey #6 (pregnant animal with uterine recording), 30 mg Potassium Salt in H15 Suppositories
[6] = Monkey #10, 30 mg Potassium Salt in H15 Plus 2% CSD Suppositories
[7] = Monkey #11, 30 mg Potassium Salt in H15 Plus 2% CSD Suppositories
[8] = Monkey #12 (pregnant animal with uterine recording), 30 mg Potassium Salt in H15 Plus 2% CSD Suppositories
[9] = Monkey #16, 30 mg Potassium Salt in H15 Plus 2% CSD + 10% Triacetin Suppositories
[10] = Monkey #17, 30 mg Potassium Salt in H15 Plus 2% CSD + 10% Triacetin Suppositories
[11] = Monkey #18, 30 mg Potassium Salt in H15 Plus 2% CSD + 10% Triacetin Suppositories

C=C1C[C@@H](O)[C@H](/C=C/[C@@H](O)C(C)(C)CCCC)[C@H]1C/C=C\CCCC(=O)O [Potassium Salt, 9-deoxo-16,16-dimethyl-9-methylene-PGE2 potassium salt]
concentration at 0.25 h [1, 3]: 128 ng/mL | concentration at 0.5 h ([1]; Monkey #4, 0.5 Hours, 30 mg Potassium Salt in H15 Suppositories): 3.72 ng/mL | concentration at 1.5 h [1, 3]: 0.41 ng/mL | concentration at 2 h [1, 3]: 0.86 ng/mL | concentration at 3 h [1, 3]: 7.52 ng/mL | concentration at 4 h [1, 3]: 8.39 ng/mL | concentration at 6 h [1, 3]: 17.9 ng/mL | concentration at 24 h [1, 3]: 21.7 ng/mL | concentration at 0.25 h [1, 4]: 10.9 ng/mL | concentration at 1 h [1, 4]: 1.42 ng/mL | concentration at 1.5 h [1, 4]: 5.91 ng/mL | concentration at 2 h [1, 4]: 11.5 ng/mL | concentration at 3 h [1, 4]: 14.2 ng/mL | concentration at 4 h [1, 4]: 22.9 ng/mL | concentration at 6 h [1, 4]: 25 ng/mL | concentration at 24 h [1, 4]: 16.2 ng/mL | concentration at 0.25 h [1, 5]: 76.6 ng/mL | concentration at 0.5 h ([1]; Monkey #6 (pregnant animal with uterine recording), 0.5 Hours, 30 mg Potassium Salt in H15 Suppositories): 68.4 ng/mL | concentration at 1 h [1, 5]: 29.6 ng/mL | concentration at 1.5 h [1, 5]: 77.3 ng/mL | concentration at 2 h [1, 5]: 28.4 ng/mL | concentration at 3 h [1, 5]: 41.7 ng/mL | concentration at 4 h [1, 5]: 42.8 ng/mL | concentration at 6 h [1, 5]: 20.2 ng/mL | concentration at 24 h [1, 5]: 7.77 ng/mL | concentration at 0.25 h [1, 6]: 20.4 ng/mL | concentration at 1 h [1, 6]: 1.5 ng/mL | concentration at 1.5 h [1, 6]: 1.7 ng/mL | concentration at 2 h [1, 6]: 3.57 ng/mL | concentration at 3 h [1, 6]: 12.4 ng/mL | concentration at 4 h [1, 6]: 20.7 ng/mL | concentration at 6 h [1, 6]: 53.8 ng/mL | concentration at 24 h [1, 6]: 16 ng/mL | concentration at 0.5 h ([1]; Monkey #10, .5 Hours, 30 mg Potassium Salt in H15 Plus 2% CSD Suppositories): 2.39 ng/mL | concentration at 0.25 h [1, 7]: 19.8 ng/mL | concentration at 1 h [1, 7]: 6.61 ng/mL | concentration at 1.5 h [1, 7]: 8.13 ng/mL | concentration at 2 h [1, 7]: 9.8 ng/mL | concentration at 3 h [1, 7]: 9.48 ng/mL | concentration at 4 h [1, 7]: 18.7 ng/mL | concentration at 6 h [1, 7]: 28.7 ng/mL | concentration at 24 h [1, 7]: 23.4 ng/mL | concentration at 0.5 h ([1]; Monkey #11, .5 Hours, 30 mg Potassium Salt in H15 Plus 2% CSD Suppositories): 14 ng/mL | concentration at 0.25 h [1, 8]: 104 ng/mL | concentration at 1 h [1, 8]: 40.9 ng/mL | concentration at 1.5 h [1, 8]: 91.1 ng/mL | concentration at 2 h [1, 8]: 66.5 ng/mL | concentration at 3 h [1, 8]: 51.5 ng/mL | concentration at 4 h [1, 8]: 36.1 ng/mL | concentration at 6 h [1, 8]: 22.5 ng/mL | concentration at 24 h [1, 8]: 6.04 ng/mL | concentration at 0.5 h ([1]; Monkey #12 (pregnant animal with uterine recording), .5 Hours, 30 mg Potassium Salt in H15 Plus 2% CSD Suppositories): 55.7 ng/mL | concentration at 0.25 h [1, 9]: 7.45 ng/mL | concentration at 0.5 h ([1]; Monkey #16, 0.5 Hours, 30 mg Potassium Salt in H15 Plus 2% CSD + 10% Triacetin Suppositories): 7 ng/mL | concentration at 1 h [1, 9]: 12.6 ng/mL | concentration at 1.5 h [1, 9]: 19.9 ng/mL | concentration at 2 h [1, 9]: 40.2 ng/mL | concentration at 3 h [1, 9]: 45.5 ng/mL | concentration at 4 h [1, 9]: 31.4 ng/mL | concentration at 6 h [1, 9]: 34.5 ng/mL | concentration at 24 h [1, 9]: 14.2 ng/mL | concentration at 0.25 h [1, 10]: 7.98 ng/mL | concentration at 0.5 h ([1]; Monkey #17, 0.5 Hours, 30 mg Potassium Salt in H15 Plus 2% CSD + 10% Triacetin Suppositories): 2.15 ng/mL | concentration at 1 h [1, 10]: 1.27 ng/mL | concentration at 1.5 h [1, 10]: 1.86 ng/mL | concentration at 2 h [1, 10]: 1.75 ng/mL | concentration at 3 h [1, 10]: 20.1 ng/mL | concentration at 4 h [1, 10]: 3.13 ng/mL | concentration at 6 h [1, 10]: 6.97 ng/mL | concentration at 24 h [1, 10]: 21.9 ng/mL | concentration at 0.25 h [1, 11]: 56.8 ng/mL | concentration at 0.5 h ([1]; Monkey #18, 0.5 Hours, 30 mg Potassium Salt in H15 Plus 2% CSD + 10% Triacetin Suppositories): 207 ng/mL | concentration at 1 h [1, 11]: 64.4 ng/mL | concentration at 1.5 h [1, 11]: 38.3 ng/mL | concentration at 2 h [1, 11]: 87.2 ng/mL | concentration at 3 h [1, 11]: 47.8 ng/mL | concentration at 4 h [1, 11]: 35.5 ng/mL | concentration at 6 h [1, 11]: 33.9 ng/mL | concentration at 24 h [1, 11]: 8.31 ng/mL | Water content ([2]; after 5 days at ambient humidity): 0.16% | hygroscopicity ([2]; crystalline solid): non-hygroscopic
